According to patent publication US12104201B2, “Engineered gyri-like mutein aptamers, and related methods” (CROSSLIFE TECHNOLOGIES INC., priority 2019, dated 2024):
Substitutions are numbered along the chain they refer to. Names and notes keep the numbering of the source.

What was measured:
[1] = biological target: FAM antibody; experiment: Fluorescence-binding assay, Kd by nonlinear regression fit to the Hill equation
Text: (§1) Fluorescence Binding Assay

[2] = biological target: T1, C. tepidium CTR107 variant E133Q (SEQ ID NO:22) (Chlorobaculum tepidum, UniProt Q8KFZ1, E133Q); assay type: binding
T1 sequence (Q8KFZ1 with tags, fused parts or gaps E133Q): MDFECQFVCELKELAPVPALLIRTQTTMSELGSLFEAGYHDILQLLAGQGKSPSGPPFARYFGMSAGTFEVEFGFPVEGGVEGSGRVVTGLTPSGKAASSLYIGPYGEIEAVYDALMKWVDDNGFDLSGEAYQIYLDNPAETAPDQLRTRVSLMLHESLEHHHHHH

[3] = biological target: C. tepidium CTR107 variant, highest affinity FAM-binding aptamer from phage display library (Chlorobaculum tepidum, UniProt Q8KFZ1); experiment: Fluorescence-binding assay, Kd by nonlinear regression fit to the Hill equation
[4] = biological target: T2, C. tepidium CTR107 variant Y106W (SEQ ID NO:20) (Chlorobaculum tepidum, UniProt Q8KFZ1, Y106W); experiment: biochemical; assay type: binding
T2 sequence (Q8KFZ1 with tags, fused parts or gaps Y106W): T1 sequence (Q8KFZ1 with tags, fused parts or gaps E133Q) with Y106W, Q133E

[5] = biological target: C. tepidium CTR107 variant, weakest FAM-binding aptamer from phage display library (Chlorobaculum tepidum, UniProt Q8KFZ1); experiment: Fluorescence-binding assay, Kd by nonlinear regression fit to the Hill equation
[6] = biological target: T3, L. innocua LIN2189 variant E157A (SEQ ID NO:28) (Listeria innocua, UniProt Q929T5, E157A); assay type: binding; conditions: FAM
T3 construct: listing organism Escherichia coli is only the host
T3 sequence (Q929T5 entry or part of it E157A): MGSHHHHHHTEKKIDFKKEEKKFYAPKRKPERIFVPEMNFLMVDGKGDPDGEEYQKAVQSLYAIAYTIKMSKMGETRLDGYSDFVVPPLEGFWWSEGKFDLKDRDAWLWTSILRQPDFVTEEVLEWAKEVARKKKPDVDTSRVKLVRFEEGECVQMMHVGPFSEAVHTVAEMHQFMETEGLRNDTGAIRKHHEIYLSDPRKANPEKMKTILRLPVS

[7] = biological target: C. tepidium CTR107 variant E36R (SEQ ID NO:18) (Chlorobaculum tepidum, UniProt Q8KFZ1, E36R); assay type: binding; conditions: FAM
C. tepidium CTR107 variant E36R (SEQ ID NO:18), sequence (Q8KFZ1 entry or part of it E36R): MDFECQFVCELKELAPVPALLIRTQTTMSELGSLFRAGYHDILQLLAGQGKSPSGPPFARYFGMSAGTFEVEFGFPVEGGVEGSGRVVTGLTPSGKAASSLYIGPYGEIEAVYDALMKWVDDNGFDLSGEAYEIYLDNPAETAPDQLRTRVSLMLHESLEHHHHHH

[8] = biological target: T4, CTR107 WT (C. tepidium Gyrl-like protein, wild type, SEQ ID NO:4) (Chlorobaculum tepidum, UniProt Q8KFZ1); experiment: biochemical; assay type: binding
T4 construct: begins […]
T4 sequence (Q8KFZ1 entry or part of it): as the sequence (Q8KFZ1 entry or part of it E36R) above, with R36E counted along it

[9] = biological target: T5, SAV2435 WT (S. aureus Gyrl-like protein, wild type, SEQ ID NO:2) (Staphylococcus aureus, UniProt A0A0H3K0Y5); assay type: binding
T5 construct: listing organism Escherichia coli is only the host

[10] = biological target: T6, LIN2189 WT (L. innocua Gyrl-like protein, wild type, SEQ ID NO:6) (Listeria innocua, UniProt Q929T5); experiment: Fluorescence binding assay (enhancement/quenching of dye fluorescence); conditions: 1 μM FAM, saturating protein
T6 construct: recombinant, purified
T6 sequence (Q929T5 with tags, fused parts or gaps): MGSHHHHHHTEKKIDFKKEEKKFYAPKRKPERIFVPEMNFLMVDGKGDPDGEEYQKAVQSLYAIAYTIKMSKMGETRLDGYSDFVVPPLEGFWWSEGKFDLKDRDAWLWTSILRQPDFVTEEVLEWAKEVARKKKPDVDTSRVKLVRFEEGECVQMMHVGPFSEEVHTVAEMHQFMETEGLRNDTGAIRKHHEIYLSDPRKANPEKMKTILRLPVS
Description: as §1
CTR107 when added at 10 μM induced a 10-fold increase in DFHBI fluorescence (FIG. 6A).
Malachite Green fluoresces in the far-red regions when stimulated by binding aptamers, therefore we monitored its fluorescence emission at 665-720 nm after exciting at 635 nm.
Thioflavin T is a benzothiazole dye that has also been used in many fluorescence applications. […] The Corn aptamer is able to bind to two Thioflavin T molecules at a homodimer interface formed by G-quadruplexes. We tested whether Gyrl-like proteins could function as fluorescence enhancement aptamers of Thioflavin T. Thioflavin T has excitation and emission maxima of […], respectively. We probed the fluorescence enhancing properties of SAV2435, CTR107 and LIN2189 variants on Thioflavin T (FIG. 8). […] All other variants display either a small 4-6 fold increase or no increase in Thioflavin T fluorescence.

[11] = biological target: S. aureus SAV2435 variant N27W (SEQ ID NO:8) (Staphylococcus aureus, UniProt A0A0H3K0Y5); assay type: binding; conditions: Acridine Orange
[12] = biological target: S. aureus SAV2435 variant Y137W (SEQ ID NO:16) (Staphylococcus aureus, UniProt A0A0H3K0Y5, V105W/Y137W); assay type: binding; conditions: Acridine Orange
[13] = biological target: S. aureus SAV2435 variant V105W (SEQ ID NO:10) (Staphylococcus aureus, UniProt A0A0H3K0Y5, V105W); assay type: binding; conditions: 500 nM Acridine Orange
[14] = biological target: S. aureus SAV2435 variant P106W (SEQ ID NO:12) (Staphylococcus aureus, UniProt A0A0H3K0Y5, P106W); assay type: binding; conditions: 500 nM Acridine Orange
[15] = biological target: S. aureus SAV2435 variant E135Q (SEQ ID NO:14) (Staphylococcus aureus, UniProt A0A0H3K0Y5, E135Q/V105W); assay type: binding; conditions: 500 nM Acridine Orange
[16] = system: E. coli expressing LIN2189 DUB; experiment: In vivo drug-binding aptamer screening (ampicillin resistance); conditions: E. coli growth, OD600, 24 hrs
[17] = system: E. coli expressing SAV2435 WT; experiment: as above; conditions: E. coli growth, OD600, 24 hrs
[18] = system: bacterial growth; ampicillin pre-incubated with LIN2189 (LIN2189 DUB); experiment: Ex vivo drug-metabolizing aptamer screening (bacterial growth in ampicillin pre-incubated with protein)
[19] = system: E. coli expressing CTR107 WT; experiment: In vivo drug-binding aptamer screening (ampicillin resistance); conditions: E. coli growth, OD600, 24 hrs
[20] = UV fluorescence quenching of Daunorubicin; conditions: 5 μM daunorubicin; saturating protein

5(6)-Carboxyfluorescein [FAM]
Kd [1]: 8 nM | fluorescence quenching ([2]; FAM): loss of quenching properties | affinity relative to FAM antibody [3]: 11 fold | fluorescence quenching ([4]; FAM): loss of quenching properties | Kd [5]: 3 nM | changes in fluorescence quenching compared to LIN2189 WT [6]: no changes | fluorescence quenching [7]: loss of quenching properties | decrease in fluorescence ([8]; 1 μM FAM, saturating protein): 6 fold | effect on fluorescence ([9]; 1 μM FAM, saturating protein): no effect | decrease in fluorescence [10]: 2 fold

CN(C)c1ccc2cc3ccc(N(C)C)cc3nc2c1 [Acridine Orange]
increase in fluorescence intensity ([2]; 500 nM Acridine Orange): doubled | quenching effect on fluorescence [11]: 2-3 fold | quenching effect on fluorescence [12]: 2-3 fold | increase in fluorescence intensity [13]: doubled | quenching effect on fluorescence ([4]; Acridine Orange): 2-3 fold | increase in fluorescence intensity [14]: doubled | increase in fluorescence intensity ([8]; 500 nM Acridine Orange): doubled | quenching effect on fluorescence ([9]; Acridine Orange): 2-3 fold | increase in fluorescence intensity [15]: doubled

CC1(C)S[C@@H]2[C@H](NC(=O)[C@H](N)c3ccccc3)C(=O)N2[C@H]1C(=O)O [Ampicillin]
highest resistance at ampicillin concentration [16]: 100 µg/mL | susceptibility to ampicillin [17]: susceptible | resistance up to ampicillin concentration [18]: up to 500 μg/ml | partial resistance up to ampicillin concentration [19]: up to 100 μg/ml

B1: CTR107 Y106W: CTR107 variant aptamer, SEQ ID NO:20 (protein, listed as Escherichia coli)
chain: T1 sequence (Q8KFZ1 with tags, fused parts or gaps E133Q) with Y106W, Q133E
UV fluorescence of Daunorubicin with protein [20]: complete shut off of fluorescence
